Assays:
HeLa cells = experiment: Cytotoxicity, viability by CCK-8 kit; format: cell-based; conditions: incubated 2 hours
Protocol: The cells were incubated with SSH-Mito for 2 hours.

[1] = Thiol selectivity and pH dependence of fluorescence response in MOPS buffer
Protocol: White and black bars represent the relative fluorescence intensity (Fyellow/Fblue) of SSH-Mito (5 μM) in the presence of various analytes before and after addition of GSH, respectively. Each spectrum was acquired 2 hours after addition of various analytes at 37° C.
The excitation wavelength was 380 nm.
White and black bars represent the relative fluorescence intensity before and after addition of GSH, respectively.

[2] = Measurement of water solubility by fluorescence intensity versus concentration; format: physicochemical; conditions: 30 mM MOPS, 100 mM KCl, pH 7.4; 0.2% DMSO
Protocol: A small amount of the two-photon fluorescent probe (SSH-Mito) prepared in Example 1 was dissolved in DMSO to prepare a stock solution (1.0×10^−2 M). The solution was diluted to 6.0×10^−3 to 6.0×10^−5 M and added to a cuvette containing 3.0 mL of a buffer (30 mM MOPS, 100 mM KCl, pH 7.4) using a microsyringe. In all cases, the concentration of DMSO in water was maintained at 0.2%. […] The maximum concentration in the linear region is determined as the solubility of the two-photon fluorescent probe.

[3] = Measurement of photophysical properties in MOPS buffer; format: physicochemical; conditions: for λ(1)max, λmax of one-photon absorption spectra: MOPS buffer (30 mM MOPS, 100 mM KCl, pH 7.4); for Φδ, two-photon action cross section / λ(2)max, λmax of two-photon excitation spectra / λfl max, λmax of one-photon emission spectra / 10^−4 ε, molar extinction coefficient (in parentheses) / Φ, fluorescence quantum yield / δ, peak two-photon cross section per photon: MOPS buffer pH 7.4; for 10^−4 ε, molar extinction coefficient (in parentheses): printed as 10^−4 ε; for Φ, fluorescence quantum yield / δ, peak two-photon cross section per photon: ±15%
Protocol: (§1) Photophysical properties of the two-photon fluorescent probe (SSH-Mito) (Example 1) and the compound represented by Formula 6 were measured in MOPS buffer (30 mM MOPS, 100 mM KCl, pH 7.4).

[4] = Emission ratio change (Rmax/Rmin) before and after addition of GSH; conditions: before and 2 hours after addition of 10 mM GSH
Protocol: as §1

thiols in HeLa cells = experiment: Ratiometric two-photon microscopy imaging of thiols in HeLa cells; format: cell-based
Protocol: The images were acquired using 740 nm excitation and fluorescence emission windows of 425-475 nm (blue) and 525-575 nm (yellow). Scale bar: 20 μm. The cells shown are representative images obtained from repeated experiments (n=5).
It was tested if the two-photon fluorescent probe of the present invention can monitor the change of thiols in a living cell.
When the cells were pre-incubated for 1 day with α-lipolic acid which increases GSH production (FIG. 6 (b)), the Fyellow/Fblue ratio increased to 2.64. And, when treated with N-ethylmaleimide (NEM), a well-known thiol blocking agent, the Fyellow/Fblue ratio decreased to 0.77 (FIG. 6 (c)).

[5] = system: thiols in rat hippocampal slices; experiment: Ratiometric two-photon microscopy imaging of rat hippocampal slices
Protocol: (a, d) Bright-field images of the CA1 and CA3 regions. (b, e) Ratiometric TPM images of rat hippocampal slices that were (b) not treated and (e) pretreated with NEM (100 μM) for 30 minutes before labeling with SSH-Mito. Ten TPM images were accumulated along the z-axis direction at depths of about 90-190 μm (10×). (c, f) Enlarged (40×) images of the red boxes in (b) and (e) at a depth of 120 μm. The two-photon excited fluorescence (TPEF) was collected in two channels (blue=425-475 nm, yellow=525-575 nm) upon excitation at 740 nm with a femtosecond (fs) pulse. Scale bars: 300 μm (a, d) and 75 μm (c, f)).
In order to investigate the utility of two-photon fluorescent probe of the present invention in tissue imaging, rat hippocampal slices were monitored.
Since the structure of the brain tissue is known to be inhomogeneous throughout its entire depth, 10 TPM images were obtained at depths of 90-190 μm and they were combined to visualize the overall thiol distribution. […] When the tissue was treated with 100 μM NEM for 30 minutes, the ratio decreased to 0.85 (FIG. 8 (f)).

solubility in the buffer [2]	λ(1)max, λmax of one-photon absorption spectra [3]	Φδ, two-photon action cross section [3]	λ(2)max, λmax of two-photon excitation spectra [3]	λfl max, λmax of one-photon emission spectra [3]	10^−4 ε, molar extinction coefficient (in parentheses) [3]	Φ, fluorescence quantum yield [3]	δ, peak two-photon cross section per photon [3]	SMILES	viability of HeLa cells (cytotoxicity) (HeLa cells)	selectivity for GSH over other analytes ([1]; 5 μM probe, 10 mM analytes, 30 mM MOPS buffer pH 7.4)	fluorescence response toward compounds containing thiol groups ([1]; GSH, Cys, Hcy, DTT, 2-ME, 2-AET)	effect of pH on fluorescence ([1]; absence and presence of 10 mM GSH, MOPS buffer)	fluorescence response toward analytes without thiol groups ([1]; amino acids (Glu, Ser, Val, Met, Ala, Ile), metal ions (Na+, K+, Ca+, Mg2+, Zn2+) and H2O2)	Rmax/Rmin, emission ratio (F525-575/F425-475) conversion factor, one-photon processes ([4]; one-photon)	Rmax/Rmin, emission ratio conversion factor, two-photon processes (in parentheses) ([4]; two-photon)	Fyellow/Fblue ratio (thiols in HeLa cells; HeLa cells pre-incubated for 1 day with α-lipolic acid)	Fyellow/Fblue ratio (thiols in HeLa cells; HeLa cells treated with N-ethylmaleimide (NEM))	average emission ratio (Fyellow/Fblue) (thiols in HeLa cells; HeLa cells, TP excitation at 740 nm, no pretreatment)	average emission ratio ([5]; CA1 region, depth of 120 μm, not treated)	average emission ratio ([5]; tissue treated with 100 μM NEM for 30 minutes)
~5.0 µM	338 nm	80	740 nm	462 nm	2.05 M^−1 cm^−1	0.82	95 GM	CN(C(=O)OCCSSCCN)c1ccc2cc(-c3nc4ccc(C(=O)NCC[P+](c5ccccc5)(c5ccccc5)c5ccccc5)cc4s3)ccc2c1 [SSH-Mito]	adequate for detecting thiols in living cells	high selectivity for GSH	strong responses	pH-insensitive at biologically relevant pH	negligible responses	45	40	2.64	0.77	1.24	1.66	0.85
	383 nm	55	750 nm	545 nm	1.50 M^−1 cm^−1	0.12	550 GM	CNc1ccc2cc(-c3nc4ccc(C(=O)NCC[P+](c5ccccc5)(c5ccccc5)c5ccccc5)cc4s3)ccc2c1.[Br-] [Compound No. 6]												

Source: patent US9005917B2, “Variable color two-photon fluorescent probe, method for imaging thiol activation in mitochondrion using same, and method for manufacturing the variable color two-photon fluorescent probe” (Ajou University Industry-Academic Cooperation Foundation, priority 2011, dated 2015)
